From patent publication US5593970A, “Heterocyclic anthracycline analogs” (priority 1994, dated 1997) come the findings set out here.

“And” between values parts separate entries of the source, which are not always exact repeats. Equal entries are not always repeated. Where two headings read alike, the source gives them in different places.

For series [1], the system named is LOX-IMVI. Description: NCI sulforhodamine B assay. The class given is cell-based, human. On the procedure:
(§1) These assays were carried out at the Developmental Therapeutics Program, Division of Cancer Treatment, National Cancer Institute (Bethesda, Md., U.S.A.). The method consists of incubating varying concentrations of the drug with an inoculum of cells for two days. […] The 57 cell lines included two mouse leukemia lines (P388 parental and adriamycin resistant) and […] human cell lines.
(§2) It should be noted that the first two parameters (GI50 and TGI) relate to antiproliferation effects while the third one (LC50) indicates true cytotoxicity. A value of -4 or greater is considered to denote resistance (inactivity).

In series [2] the test system is OVCAR-5. Nature of the series: NCI sulforhodamine B assay. The class given is cell-based, human. The procedure: as §1, §2
In series [3] the test system is SK-MEL-28. Description: NCI sulforhodamine B assay. The class given is cell-based, human. On the procedure: as §1, §2
Series [4] has as its system IGROV-1. Description: NCI sulforhodamine B assay. The class given is cell-based, human. The procedure:
as §1, §2

Series [5] relates to SK-MEL-5. Nature of the series: NCI sulforhodamine B assay. The class given is cell-based, human. The procedure:
as §1, §2

Series [6] relates to HCC-2998. Nature of the series: NCI sulforhodamine B assay. Type of series: cell-based, human. The procedure:
as §1, §2

In series [7] the test system is P388/ADR. Nature of the series: NCI sulforhodamine B assay. Type of series: cell-based, mouse. On the procedure: as §1, §2
The test system of series [8] is MOLT-4. Nature of the series: NCI sulforhodamine B assay. The class given is cell-based. Particulars: Homo sapiens, MOLT-4, 48 h; read-out: Log10 TGI (converted). The procedure:
as §1, §2

In series [9] the test system is SNB-78. Description: NCI sulforhodamine B assay. The class given is cell-based. Particulars: Homo sapiens, SNB-78, 48 h, read-out: Log10 LC50 (converted). The procedure: as §1, §2
In series [10] the test system is K-562. Nature of the series: NCI sulforhodamine B assay. The class given is cell-based. Particulars: Homo sapiens, K562, 48 h, read-out: Log10 TGI (converted). The procedure: as §1, §2
Series [11] relates to HCT-116. Nature of the series: NCI sulforhodamine B assay. The class given is cell-based. Particulars: Homo sapiens. On the procedure:
as §1, §2

The subject of series [12] is OVCAR-3. Nature of the series: NCI sulforhodamine B assay. Type of series: cell-based. Particulars: Homo sapiens, read-out: Log10 GI50 (converted). On the procedure:
as §1, §2

Series [13] deals with XF-498 L. Nature of the series: NCI sulforhodamine B assay. Type of series: cell-based. Particulars: Homo sapiens. The procedure:
as §1, §2

For series [14], the system named is P388. Description: NCI sulforhodamine B assay. The class given is cell-based. Particulars: Mus musculus, P388, 48 h. On the procedure: as §1, §2
Series [15] has as its system OVCAR-8. Nature of the series: NCI sulforhodamine B assay. Particulars: Homo sapiens, read-out: Log10 GI50 (converted). The class given is cell-based. The procedure:
as §1, §2

The subject of series [16] is SC Lung. Particulars: sc lung cancer cell lines, 48 h.
Series [17] has as its system Renal. Particulars: renal cancer cell lines, 48 h.
Series [18] has as its system Ovarian. Particulars: ovarian cancer cell lines, 48 h.
In series [19] the test system is CNS. Particulars: cns cancer cell lines, 48 h.
Series [20] has as its system Leukemia. Particulars: leukemia cell lines, 48 h.
For series [21], the system named is tumor cell lines. Particulars: tumor cell line panel, 48 h.
For series [22], the system named is Colon. Particulars: colon cancer cell lines, 48 h.
In series [23] the test system is solid tumors. Particulars: solid tumor cell lines, 48 h.
Series [24] relates to Melanoma. Particulars: melanoma cell lines, 48 h.

For the compound `COC(=O)C1CC2=C(C(=O)c3c(cc4ccccc4c3O)C2=O)C(O[C@H]2C[C@H](NC(=O)C(F)(F)F)[C@H](O)[C@H](C)O2)O1` (mixture of isomers) [BCH-242, (1'S,1R,3S) and (1'S, 1S,3R)-Methyl[11-hydroxy-1-2',3',6'-trideoxy-3-trifluroacetamido-L-lyxohexopyranose)-5,12-dioxo-3,4,5,12-tetrahydroanthraceno[2,3-c]pyran-3-yl]formate], the CC50 was 5750 nM in [1] (Homo sapiens, LOX IMVI, 48 h, read-out: Log10 LC50, LOX-IMVI (converted)); 5890 nM in series [2] (Homo sapiens, OVCAR-5, 48 h, read-out: Log10 LC50, OVCAR-5 (converted)); 7760 nM in series [3] (Homo sapiens, SK-MEL-28, 48 h, read-out: Log10 LC50, SK-MEL-28 (converted)); 5500 nM in series [5] (Homo sapiens, SK-MEL-5, 48 h, read-out: Log10 LC50, SK-MEL-5 (converted)); 69200 nM in series [7] (Mus musculus, 48 h, read-out: Log10 LC50, P388/ADR (converted)); over 100000 nM in series [9]. Besides, the CC50 in [11] (HCT-116, 48 h, read-out: Log10 LC50 (converted)) was 933 nM; in [13] (XF498, 48 h, read-out: Log10 LC50 (converted)) it was 6030 nM; in [14] (read-out: Log10 LC50 (converted)), over 100000 nM. Moreover, the “Log10 LC50” value in [1] (LOX-IMVI, 2880 min) is recorded as -5.43 log molar; in series [2] (OVCAR-5, 2880 min), -5.24 log molar; in series [3] (SK-MEL-28, 2880 min) it was -5.37 log molar; in series [4] (2880 min), -5.10 log molar; in series [5] (SK-MEL-5, 2880 min), -5.36 log molar; in series [7] (2880 min) it was over -4.00 log molar. Besides, the IC100 in series [2] (Homo sapiens, OVCAR-5, 48 h, OVCAR-5, read-out: Log10 TGI (converted)) was 3.47 µM; in series [5] (Homo sapiens, SK-MEL-5, 48 h, SK-MEL-5, read-out: Log10 TGI (converted)), 2.82 µM; in [8], 3.24 µM; in [10] it was 4.47 µM; in series [11] (HCT-116, 48 h, read-out: Log10 TGI (converted)), 0.355 µM; in [13] (XF498, 48 h, XF-498 L, read-out: Log10 TGI (converted)), 3.16 µM. In addition, the IC100 in [14] (read-out: Log10 TGI) was over 100 µM. Besides, the GI50 in series [2] (Homo sapiens, OVCAR-5, OVCAR-5, read-out: Log10 GI50 (converted)) was 2000 nM; in series [6] (Homo sapiens, HCC 2998, HCC-2998, read-out: Log10 GI50 (converted)), 2340 nM; in series [7] (Mus musculus, read-out: Log10 GI50 (converted)), 2340 nM and 324 nM; in [11] (HCT-116, read-out: Log10 GI50 (converted)), 132 nM; in [12] (OVCAR-3, OVCAR-3), 1510 nM; in series [12] (OVCAR-3), 251 nM. Besides, the GI50 in series [13] (XF498, XF-498 L, read-out: Log10 GI50 (converted)) was 1620 nM; in series [15] (OVCAR-8, OVCAR-8) it was 224 nM; in series [15] (OVCAR-8) it was 3240 nM. Moreover, the results for the “Log10 GI50” value in [2] (OVCAR-5), in [4] and in series [6] (HCC-2998) were -5.73 log molar, -5.75 log molar and -5.92 log molar, respectively. Moreover, the results for the “Log10 TGI” value in series [2] (OVCAR-5) and in series [5] (SK-MEL-5) were -5.49 log molar and -5.73 log molar, respectively.
For “Methyl(11-hydroxy-5,12-dioxo-3,4,5,12-tetrahydroanthraceno[2,3-c]pyran-3-yl)ketone and Methyl(5-hydroxy-5,12-dioxo-3,4,5,12-tetrahydroanthraceno[2,3-c]pyran-3-yl)ketone [BCH-687]”, the “Average LOG10 LC50” value in series [16] is reported as over -4.18 log molar; in series [17], over -4.21 log molar; in [18] it was -4.15(± 0.11) log molar; in series [19], over -4.15 log molar; in series [20] it was over -4.00 log molar; in series [22], -4.25(± 0.09) log molar. The “Average LOG10 LC50” value in [24] is recorded as -4.28(± 0.09) log molar. The “Log10 LC50, Mean / MG-MID” value in series [21] is -4.10 log molar. Moreover, the “Average LOG10 LC50, Mean Potency in solid tumors” value in series [23] is listed as -4.21(± 0.05) log molar.
